Measured values as given in US12428377B2, “Sodium-hydrogen exchanger 3 inhibitor compounds” (Eli Lilly and Company, priority 2019, dated 2025).
“And” between values parts separate entries of the source, which are not always exact repeats. Identical values can stand only once.

Experiments:
Type in all cases: in vivo, rat
male Sprague Dawley rats [1] = test: Intestinal phosphate retention: percent radiolabeled dose recovered in gastrointestinal tract; settings: Compound A 10 mg/kg, 4 h after radiolabeled phosphate
Method: (§1) The purpose of this study is to investigate in rats the effect of Example 2, Compound A, and an Example 2/Compound A combination on phosphate absorption 15 min after dosing the compounds and the phosphate retained in the intestine 4.25 h after dosing the compounds. The latter is a measure of the oral phosphate load which is absorbed over an extended period.
(§2) Two vehicles are used in this study: 1) 1% HEC and 2) 0.46% poly-1-vinylpyrrolidone-co-vinyl acetate in water (PVP-VA vehicle). The vehicle control group in this study receives a 1:1 combination of the two vehicles.
The Example 2, Compound A and phosphate dosing solutions are prepared similarly as described above, except the doses are 0.4 mg/kg for Example 2 and 10 mg/kg for Compound A and they are prepared at a concentration where they would be dosed in a 5 mL/kg volume. The Example 2 and Compound A alone groups are mixed 1:1 with the vehicle of the other compound, while the Compound A and Example 2 are mixed 1:1 prior to dosing. The final dosing volume is 10 mL/kg in all cases.
4 h after the radiolabeled phosphate solution is dosed, stomach, small intestine, large intestine, and feces are collected, weighed and digested with 1N NaOH overnight at 37° C. Radioactivity in each fraction is measured by scintillation counting.
The percent dose recovered in gastrointestinal tract is defined as radioactivity recovered in stomach, small intestine, large intestine and feces compared to the amount dosed. Data is presented as mean±SEM with animal numbers equal to 8 for the groups. Statistical significance is determined by ANOVA with a Dunnett's comparison to the Example 2/Compound A combination using JMP 12.1.
The percent dose recovered in gastrointestinal tract data is further analyzed by a two-way ANOVA in JMP 12.1 to test for additivity of the effects of Example 2 and Compound A on inhibiting phosphate absorption. […] That is, the inhibitory effect of the combination is greater than the sum of the individual compound effects.

male Sprague Dawley rats [2] = test: Radiolabeled phosphate absorption in rats, Studies 1-3 (plasma radioactivity); settings: for Absorption (vs. vehicle control): mean ± SEM
Method: Effect of Example 2 in Combination with an NPT2b Inhibitor (Compound A) on Phosphate Absorption in Rats
NPT2b inhibitor dosing solutions: Compound A and poly-1-vinylpyrrolidone-co-vinyl acetate (PVP-VA, Sigma-Aldrich) are weighed into a bottle at a ratio of 30% Compound A and 70% PVP-VA by weight. A clear yellow solution is prepared by diluting the mixture in MeOH followed by the addition of 2 mol NaOH per mol Compound A using 5 N NaOH. The solution is spray dried by a stream of hot nitrogen and the solid dispersion powder is collected and then further dried in a vacuum oven. Doses for the sprayed dried solid dispersion (SDD) are expressed as active pharmaceutical ingredient (API) throughout.
To make the Compound A dosing solution, an appropriate amount of Compound A SDD is weighed in a vial and dissolved in water (10 mL/kg dosing volume). […] The subsequent solutions for lower doses are prepared by serial dilutions with water. PVP-VA at 7 mg/mL is used as a vehicle control.
NHE3 inhibitor dosing solutions: To make the Example 2 dosing solution, an appropriate amount of the compound is weighed in a vial and dissolved in 1% HEC (10 mL/kg dosing volume). […] The subsequent solutions for lower doses are prepared by serial dilutions with HEC.
To make the radiolabeled phosphate dosing solution, a 16.25 mM Na2HPO4, 0.9% saline, pH 7.4 solution is prepared and filtered using a sterile, 0.22 μm, polyethersulfone, Millex-GP Syringe Filter Unit (EMD Millipore). Radioactive phosphate (H3^33PO4, Perkin Elmer) is added at about 2.5 μCi per mL of the solution and filtered again.
Three separate studies are performed. In these studies, male Sprague Dawley rats, are randomized into groups with approximately equal mean body weights. Following an overnight fast, all the animals are dosed at 10 mL/kg with either vehicle, varying doses of Compound A (Study 1), varying doses of Example 2 (Study 2) or 1.2 mg/kg Compound A and varying doses of Example 2 (Study 3). 15 min later, radiolabeled phosphate is orally dosed in a 2 mL volume. 15 min later, blood is collected and plasma is prepared. Radioactivity (dpm) in 50 μL plasma is measured by scintillation counting and is used to calculate phosphate absorption. The results are normalized with the vehicle controls representing 100% absorption. The curves are fitted with nonlinear regression with variable slope using GraphPad Prism 6 to calculate the ED50 and Emax given in Table 7. […] No curve fit was performed for Compound A alone in Study 1.

male Sprague Dawley rats [3] = test: Phosphate absorption 15 min after radiolabeled phosphate (Example 2, Compound A, combination); settings: Compound A 10 mg/kg, plasma 15 min after radiolabeled phosphate, P=0.013 versus vehicle control
Method: Effect of Example 2 in Combination with an NPT2b Inhibitor (Compound A) on Phosphate Absorption and Intestinal Phosphate Retention in Rats
as §1, §2
The Example 2, Compound A and phosphate dosing solutions are prepared similarly as described above, except the doses are 0.4 mg/kg for Example 2 and 10 mg/kg for Compound A and they are prepared at a concentration where they would be dosed in a 5 mL/kg volume. […]
Male Sprague Dawley rats are fasted 4 h and then administered appropriate vehicles, 10 mg/kg Compound A, 0.4 mg/kg Example 2, or a combination of both compounds. […] Radioactivity in plasma is measured by scintillation counting and used to calculate the inhibition of phosphate absorption. […] Statistical significance is determined by ANOVA with a Dunnett's comparison to the Example 2/Compound A combination using JMP 12.1.

## CC1(C)CN(C(=O)NCCCCO)CCN1Cc1cccc(C(=O)Nc2sc3c(c2C(=O)Nc2cc(F)c(CCc4ccc(C(=O)O)cc4)c(F)c2)CCCC3)c1 [Compound A, reference compound]
Male Sprague Dawley rats [1]
  Percent Dose Recovered, Feces: <0.1%
Male Sprague Dawley rats [1]; mean ± SEM
  Percent Dose Recovered, Large Intestine: 18.43 ± 2.03%
  Percent Dose Recovered, Small Intestine: 8.98 ± 0.48%
  Percent Dose Recovered, Stomach: 4.86 ± 1.13%
Male Sprague Dawley rats [1]; mean ± SEM, 10 mg/kg
  Percent Dose Recovered, Total: 32% and 32.27 ± 1.38%
Male Sprague Dawley rats [2]; Study 1, rats, Compound A 0.01 mg/kg
  Absorption (vs. vehicle control): 94.39 ± 7.88%
Male Sprague Dawley rats [2]; Study 1, rats, Compound A 0.1 mg/kg
  Absorption (vs. vehicle control): 87.61 ± 6.08%
Male Sprague Dawley rats [2]; Study 1, rats, Compound A 1 mg/kg
  Absorption (vs. vehicle control): 87.64 ± 7.26%
Male Sprague Dawley rats [2]; Study 1, rats, Compound A 10 mg/kg
  Absorption (vs. vehicle control): 81.53 ± 5.50%
Male Sprague Dawley rats [2]; Study 1, rats, Compound A highest dose tested (10 mg/kg)
  % Inhibition at the highest dose (phosphate absorption): 18%
Male Sprague Dawley rats [2]; Study 3, rats, Vehicle + Compound A 1.2 mg/kg
  Absorption (vs. vehicle control): 71.00 ± 11.63%
Male Sprague Dawley rats [3]
  Inhibition of phosphate absorption: 35%
